ChEMBL document CHEMBL1201862, “PubChem BioAssay data set” (2004)
Calls of active or inactive are those of the source. Unless noted, the rule behind the calls is not given here.

Tests used:
Bcl-2-like protein 10 = molecular target: T1, Bcl-2-like protein 10 (Homo sapiens, UniProt Q9HD36); assay: Biochemical TR3 FP assay of Bcl-B inhibitor potency, EC50 (AID 1243); type: functional
T1 sequence (Q9HD36 whole entry): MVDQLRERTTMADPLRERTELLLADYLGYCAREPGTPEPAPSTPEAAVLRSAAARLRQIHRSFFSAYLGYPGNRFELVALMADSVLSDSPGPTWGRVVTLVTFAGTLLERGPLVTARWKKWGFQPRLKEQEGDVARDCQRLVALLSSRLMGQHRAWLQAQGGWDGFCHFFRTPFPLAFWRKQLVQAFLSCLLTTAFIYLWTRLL

Ephrin type-A receptor 4 = Ephrin type-A receptor 4 (Mus musculus, UniProt Q03137); assay: inhibitors of EphA4 binding to KYL peptide, primary screen, biochemical, colorimetric, mouse EphA4 (AID 689); type: functional
Ephrin type-A receptor 4, sequence (Q03137 whole entry): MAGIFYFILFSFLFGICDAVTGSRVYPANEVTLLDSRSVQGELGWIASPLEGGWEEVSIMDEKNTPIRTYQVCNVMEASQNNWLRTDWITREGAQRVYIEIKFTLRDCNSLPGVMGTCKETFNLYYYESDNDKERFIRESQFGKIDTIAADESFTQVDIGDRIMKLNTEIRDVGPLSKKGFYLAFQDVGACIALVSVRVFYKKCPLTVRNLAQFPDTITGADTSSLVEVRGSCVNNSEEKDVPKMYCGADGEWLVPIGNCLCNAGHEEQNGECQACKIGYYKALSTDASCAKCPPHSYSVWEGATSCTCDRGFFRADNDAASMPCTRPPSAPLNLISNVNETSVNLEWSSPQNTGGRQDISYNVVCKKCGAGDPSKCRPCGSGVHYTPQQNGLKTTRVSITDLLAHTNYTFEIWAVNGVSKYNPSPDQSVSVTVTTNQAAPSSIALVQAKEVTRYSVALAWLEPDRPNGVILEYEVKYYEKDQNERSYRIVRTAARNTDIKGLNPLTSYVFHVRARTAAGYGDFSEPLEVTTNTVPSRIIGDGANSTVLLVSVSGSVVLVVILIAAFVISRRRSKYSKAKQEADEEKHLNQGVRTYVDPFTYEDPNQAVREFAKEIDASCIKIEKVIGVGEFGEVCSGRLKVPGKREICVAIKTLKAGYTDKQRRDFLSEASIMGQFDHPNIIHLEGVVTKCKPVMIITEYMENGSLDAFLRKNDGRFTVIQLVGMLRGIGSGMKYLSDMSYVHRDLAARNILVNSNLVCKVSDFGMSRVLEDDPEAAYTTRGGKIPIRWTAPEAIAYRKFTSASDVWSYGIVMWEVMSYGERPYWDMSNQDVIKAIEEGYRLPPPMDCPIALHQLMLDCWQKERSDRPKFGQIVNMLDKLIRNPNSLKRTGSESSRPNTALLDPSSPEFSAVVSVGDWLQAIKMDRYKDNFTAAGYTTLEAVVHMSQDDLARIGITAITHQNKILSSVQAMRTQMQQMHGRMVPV

[1] = molecular target: Muscarinic acetylcholine receptor M1 (Rattus norvegicus, UniProt P08482); assay: rat M1 positive allosteric modulator potency, dose response, cell-based, calcium mobilization, CHO-K1, ACh EC20 (AID 2425); type: functional
Muscarinic acetylcholine receptor M1, sequence (P08482 whole entry): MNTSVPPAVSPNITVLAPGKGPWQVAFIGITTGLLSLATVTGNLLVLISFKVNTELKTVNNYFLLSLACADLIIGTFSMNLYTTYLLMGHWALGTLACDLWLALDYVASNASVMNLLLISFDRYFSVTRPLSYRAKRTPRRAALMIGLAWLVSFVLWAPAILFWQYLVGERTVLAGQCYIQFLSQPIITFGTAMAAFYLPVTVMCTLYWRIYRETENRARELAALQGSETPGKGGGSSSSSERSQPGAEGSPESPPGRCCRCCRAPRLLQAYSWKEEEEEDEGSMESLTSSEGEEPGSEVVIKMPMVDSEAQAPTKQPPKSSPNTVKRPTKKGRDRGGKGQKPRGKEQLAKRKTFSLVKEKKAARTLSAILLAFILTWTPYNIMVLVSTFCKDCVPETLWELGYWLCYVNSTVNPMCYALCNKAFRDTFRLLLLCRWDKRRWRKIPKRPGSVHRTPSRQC

[2] = insulin promoter down-regulators in MIN6 cells, imaging, high-content screening, mouse beta cells (AID 1628); type: functional
[3] = tested on: Streptococcus sp. 'group A'; assay: growth inhibition of control SK(-) GAS strain, dose response, counter-screen for streptokinase expression inhibitor project, luminescence, kanamycin, BacTiterGlo, confirmation (AID 1900); type: functional, organism-based
[4] = cytotoxicity in MIN6 insulinoma cells, dose response, cytotoxicity control, cell-based, mouse insulinoma (AID 2122); type: functional;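 also: confirmatory high-throughput counterscreen run to flag cytotoxic compounds; mouse MIN-6 beta cells carrying an insulin promoter eGFP reporter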
[5] = inhibitors of intracellular T. cruzi replication, confirmation, NIH3T3 host cells, beta-gal luminescence (AID 2044); type: functional, cell-based;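 also: intracellular parasites grown in NIH/3T3 mouse fibroblasts as host cells; luminescent beta-galactosidase reporter signal from transgenic T. cruzi replicating inside host cells; inhibitors lower the luminescence signal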
Galanin receptor type 2 = molecular target: T2, Galanin receptor type 2 (Homo sapiens, UniProt O43603); assay: Dose Response cell-based high-throughput screening assay to identify agonists of galanin receptor 2 (GALR2). [Related pubchem assays: 864 ]; type: functional
T2 sequence (O43603 whole entry): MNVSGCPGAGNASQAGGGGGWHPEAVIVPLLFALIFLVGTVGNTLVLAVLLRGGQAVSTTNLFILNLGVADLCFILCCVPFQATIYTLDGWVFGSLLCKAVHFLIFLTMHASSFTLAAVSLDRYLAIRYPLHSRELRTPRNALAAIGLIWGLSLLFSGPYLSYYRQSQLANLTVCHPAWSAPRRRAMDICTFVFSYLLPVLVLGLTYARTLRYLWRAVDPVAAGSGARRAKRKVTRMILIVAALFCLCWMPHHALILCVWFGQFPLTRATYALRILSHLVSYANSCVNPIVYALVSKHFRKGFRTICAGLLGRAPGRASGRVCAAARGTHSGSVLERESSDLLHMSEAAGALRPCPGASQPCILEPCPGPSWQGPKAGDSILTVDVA

[6] = cytotoxicity toward NIH3T3 fibroblasts, dose response, counter-screen, cell-based, ATP luminescence, mouse fibroblasts (AID 2010); type: functional;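 also: cells exposed to compound for about 90 hours before reading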
Streptococcus [7] = assay: Group A Streptococcus viability loss, dose response, counter-screen for streptokinase expression inhibitor project, luminescence, BacTiterGlo (AID 1915); type: functional, organism-based;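 also: potency for reduction of bacterial viability or growth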
INS1 = assay: beta cell apoptosis inhibitors, cytokine rescue, dose response, luminescence, retest (AID 449756); type: functional, cell-based; settings: Rattus norvegicus;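 also: cell death triggered by IL-1 beta plus TNF-alpha plus IFN-gamma mixture; protective hits raise ATP signal compared with cytokine alone wells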
[8] = Shn3 3'UTR reporter inhibitors, dose response, cell-based, Clone20 osteoblasts, firefly luciferase, cherry-picked (AID 624132); type: functional;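 also: firefly luciferase luminescence from reporter carrying the Shn3 3'UTR in osteoblasts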
[9] = HepG2 cell cytotoxicity, dose response, cytotoxicity control for Shn3 inhibitor project, CellTiter-Glo, cherry-picked (AID 624134); type: functional, cell-based
[10] = control 3'UTR Renilla luciferase suppression, dose response, counter-screen for Shn3 inhibitor project, cell-based, Clone20-Shn3RL, cherry-picked (AID 624133); type: functional
[11] = molecular target: Inward rectifier potassium channel 2 (Mus musculus, UniProt P35561); assay: Manual electrophysiological patch clamp assay for SAR compounds that inhibit/block inward-rectifying potassium ion channel Kir2.1. [Related pubchem assays: 1843 (Summary assay for Kir2.1 inhibitor assays.), 1672 (Primary HTS of 305616 compounds where 2592 were identified as active.)]; type: functional
Inward rectifier potassium channel 2, sequence (P35561 whole entry): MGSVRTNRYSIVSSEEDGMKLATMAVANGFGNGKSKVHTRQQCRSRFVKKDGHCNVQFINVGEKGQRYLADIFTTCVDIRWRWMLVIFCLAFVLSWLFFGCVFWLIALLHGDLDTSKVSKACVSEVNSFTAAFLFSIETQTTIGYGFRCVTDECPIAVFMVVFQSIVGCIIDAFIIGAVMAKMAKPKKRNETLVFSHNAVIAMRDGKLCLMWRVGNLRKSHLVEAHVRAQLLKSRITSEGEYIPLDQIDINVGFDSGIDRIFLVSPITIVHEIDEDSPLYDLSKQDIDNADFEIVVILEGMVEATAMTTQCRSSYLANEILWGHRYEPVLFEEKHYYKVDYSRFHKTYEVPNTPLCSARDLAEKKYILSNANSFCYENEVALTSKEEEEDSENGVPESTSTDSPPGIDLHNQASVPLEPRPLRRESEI

[12] = enhancers of respiration in Yfh1-depleted yeast, dose response, Friedreich's ataxia, plus single-dose screen (AID 1465); type: functional;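 also: yeast depleted of Yfh1p frataxin homolog grown on glycerol needing respiration; WST-1 tetrazolium dye reduction as measure of cellular dehydrogenase metabolic activity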
Streptokinase A = molecular target: T3, Streptokinase A (Streptococcus pyogenes serotype M1, UniProt P10520); assay: Absorbance Microorganism-Based Dose Response Follow up to Identify Inhibitors of Streptokinase Expression. [Related pubchem assays: 1677 (Project Summary), 1915, 1914, 1902 (Retest at Dose), 1900 (Counter Screen), 1662 (Primary HTS)]; type: functional, Streptococcus pyogenes M1 GAS
T3 sequence (P10520 whole entry): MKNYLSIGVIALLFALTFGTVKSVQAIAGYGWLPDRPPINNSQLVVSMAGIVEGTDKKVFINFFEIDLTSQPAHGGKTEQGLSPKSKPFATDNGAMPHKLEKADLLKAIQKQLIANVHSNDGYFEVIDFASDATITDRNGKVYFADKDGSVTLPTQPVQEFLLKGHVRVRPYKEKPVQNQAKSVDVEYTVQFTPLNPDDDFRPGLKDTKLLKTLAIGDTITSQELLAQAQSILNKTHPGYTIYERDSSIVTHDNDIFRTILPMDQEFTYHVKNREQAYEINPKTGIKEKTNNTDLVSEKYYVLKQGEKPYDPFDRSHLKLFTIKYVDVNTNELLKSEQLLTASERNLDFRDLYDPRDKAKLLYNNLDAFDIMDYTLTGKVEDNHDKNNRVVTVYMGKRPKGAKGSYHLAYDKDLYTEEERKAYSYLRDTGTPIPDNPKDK

Streptococcus [13] = assay: Streptococcus pyogenes growth inhibition counter-screen, dose response, counter-screen for streptokinase expression inhibitor project, luminescence, BacTiter-Glo, strain UMAA2166 (AID 2477); type: functional, organism-based

In the case of `Cc1ccc2oc3cc(NCCCN(C)C)c4c(=O)c5ccccc5c(=O)c4c3[nH]c2c1`, the EC50 (Bcl-2-like protein 10) is reported as 670 nM (active).
With `CCCCN(CCCC)c1nc2ccccc2nc1/C(C#N)=C(/O)OCC` the IC50 (Ephrin type-A receptor 4) was 5650 nM (active).
With `Cc1cc(NC(=O)CS(=O)(=O)c2cn(Cc3cc(Br)ccc3F)c3ccccc23)no1` the EC50 [1] was 1420 nM (active).
In the case of `Cc1cc(C)c2nc(NNC(=O)c3ccc(S(=O)(=O)N4CC(C)CC(C)C4)cc3)sc2c1` (stereo not drawn), the IC50 [2] is reported as 4160 nM (active), the EC50 [3] is reported as 697 nM (active) and the IC50 [4] is reported as 3680 nM (active). The EC50 [5] was 1350 nM (active), the EC50 (Galanin receptor type 2) was > 55700 nM (not active) and the EC50 [6] was 3390 nM (active). For the same compound, the EC50 (Streptococcus [7]) was 2550 nM (active), the AC50 (INS1) was 1960 nM (active) and the AC50 [8] was 2280 nM (active). For the same compound, the AC50 [9] was 7560 nM (active) and the AC50 [10] was 2100 nM (active).
In the case of `COc1ccc(CNCc2cccc(Cl)c2)cc1`, the IC50 [11] is reported as 1120 nM (active).
In the case of `COc1ccc(C2(c3ccc(O)cc3O)CC(c3ccccc3Cl)N=C(S)N2)cc1` (stereo not drawn), the EC50 [12] is reported as > 100000 nM (active).
With `COc1ccc(-c2nc(OC)c3ccccc3n2)cc1` the EC50 (Streptokinase A) was 63200 nM (active) and the EC50 (Streptococcus [13]) was > 500000 nM (not active).
